For assay [1], the system named is Hepatocyte. Briefly: Antihyperglycemic activity in Sprague-Dawley rat hepatocytes assessed as inhibition of glucose production at 2 mM after 6 hrs by glucose oxidase activity assay. The class given is functional.
Assay [2] deals with Hepatocyte. In words: Antihyperglycemic activity in Sprague-Dawley rat hepatocytes assessed as inhibition of glucose production at 40 uM after 6 hrs by glucose oxidase activity assay. The class given is functional.
The target in assay [3] is T1, Angiotensin-converting enzyme (Oryctolagus cuniculus) (UniProt P12822).
T1 sequence (whole entry): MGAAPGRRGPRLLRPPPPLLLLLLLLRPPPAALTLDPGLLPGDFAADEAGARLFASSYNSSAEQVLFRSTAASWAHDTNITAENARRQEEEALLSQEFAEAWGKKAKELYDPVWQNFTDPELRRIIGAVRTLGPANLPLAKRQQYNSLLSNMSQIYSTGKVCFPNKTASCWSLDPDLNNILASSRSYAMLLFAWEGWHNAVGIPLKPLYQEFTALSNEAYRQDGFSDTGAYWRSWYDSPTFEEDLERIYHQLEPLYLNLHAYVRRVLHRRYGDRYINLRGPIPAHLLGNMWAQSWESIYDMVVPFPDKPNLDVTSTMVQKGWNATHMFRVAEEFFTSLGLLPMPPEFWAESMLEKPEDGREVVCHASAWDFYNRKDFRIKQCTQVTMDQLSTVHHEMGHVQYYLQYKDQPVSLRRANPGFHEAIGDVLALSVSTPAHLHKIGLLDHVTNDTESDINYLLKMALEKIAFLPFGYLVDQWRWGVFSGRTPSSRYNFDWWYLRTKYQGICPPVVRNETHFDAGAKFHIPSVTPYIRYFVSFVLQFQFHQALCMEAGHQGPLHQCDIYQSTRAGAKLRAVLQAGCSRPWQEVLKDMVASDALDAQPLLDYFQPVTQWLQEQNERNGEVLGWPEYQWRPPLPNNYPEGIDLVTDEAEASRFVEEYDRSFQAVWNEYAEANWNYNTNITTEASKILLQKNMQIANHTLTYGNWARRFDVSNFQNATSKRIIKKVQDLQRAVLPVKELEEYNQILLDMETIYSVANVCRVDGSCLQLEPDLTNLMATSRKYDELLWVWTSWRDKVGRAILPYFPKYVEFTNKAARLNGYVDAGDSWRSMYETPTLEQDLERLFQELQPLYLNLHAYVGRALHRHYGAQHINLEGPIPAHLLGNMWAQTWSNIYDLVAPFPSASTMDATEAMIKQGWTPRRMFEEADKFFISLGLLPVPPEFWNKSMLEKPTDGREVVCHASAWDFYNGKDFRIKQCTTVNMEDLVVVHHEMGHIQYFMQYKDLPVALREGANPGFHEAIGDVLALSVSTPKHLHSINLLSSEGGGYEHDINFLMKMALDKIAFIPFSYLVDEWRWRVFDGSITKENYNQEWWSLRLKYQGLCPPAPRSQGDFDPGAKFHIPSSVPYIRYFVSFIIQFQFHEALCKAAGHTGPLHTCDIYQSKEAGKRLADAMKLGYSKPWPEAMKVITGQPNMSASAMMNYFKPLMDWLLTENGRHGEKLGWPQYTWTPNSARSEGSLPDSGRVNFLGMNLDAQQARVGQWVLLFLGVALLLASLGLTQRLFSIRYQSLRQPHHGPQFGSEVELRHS
In words: Inhibition of rabbit lung ACE using hippuryl-histidyl-leucine as substrate assessed as hippuric acid formation at 10 mM by UPLC-MS analysis.

Assay [4] relates to Saccharomyces cerevisiae. Briefly: Inhibition of Saccharomyces cerevisiae alpha-glucosidase using 4-nitrophenyl alpha-glucopyranoside as substrate at 6.25 mM preincubated for 10 mins followed by substrate addition measured after 20 mins by spectrophotometric analysis.

Turning to `CN(C)C(=N)NC(=N)N` [METFORMIN], in assay [1], the inhibition (as a rule, the drop in the measured response relative to a control, in per cent) at 2000 µM is 25%.

For the compound `CC(C)=CCC[C@@H](C(=O)O)[C@@H]1CNC(=N)N1`, in assay [2], the inhibition at 40 µM was 12.5%.

Take `CC(C)=CCC[C@@H](C(=O)O)[C@@H]1CN(CC(O)CCO)C(=N)N1` (stereo partly specified): the inhibition at 40 µM in assay [2] stood at 18.5%.

For `CC1(C)C[C@]2(O)C[C@@H](C(=O)[O-])[C@@H]3CNC(=[N+]32)N1`, the results for the inhibition in assay [3] and in assay [4] were 26% and 20%, respectively. Besides, the inhibition at 40 µM in assay [2] stood at 8.2%.

For the origin of these results see ChEMBL document CHEMBL3739390, “Plantadeprate A, a Tricyclic Monoterpene Zwitterionic Guanidium, and Related Derivatives from the Seeds of Plantago depressa” (2015).
